In patent EP4763837A1, “PHOTOCHROMIC COMPOUND, CURABLE COMPOSITION, OPTICAL ARTICLE, LENS, AND EYEGLASSES” (TOKUYAMA CORPORATION, priority 2023, dated 2025):
Values joined by “and” are separate entries in the source; they are usually repeats but may differ in a detail not shown here. Equal values may be shown once.

What was measured:
[1] = Photochromic property of photochromic cured product made by kneading method; format: physicochemical; details: for Residual ratio: A96/A0 x 100 after 96 hours accelerated degradation, xenon weather meter X25; for Color developing density at 23°C: absorbance difference after 240 seconds irradiation at the maximum absorption wavelength of the same line
[2] = Photochromic property of photochromic laminate made by coating method; format: physicochemical; details: for Residual ratio / Color developing density at 23°C: laminate by coating method; for Residual ratio: A96/A0 x 100 after 96 hours accelerated degradation, xenon weather meter X25; for Color developing density at 23°C: absorbance difference after 240 seconds irradiation at the maximum absorption wavelength of the same line
How it was run: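 Compound at 0.25 mmol per 100 g methacrylate monomer mix, spin-coated 40 µm on a primed thiourethane lens, photocured 90 s under N2, then 110°C for 1 h. λmax and A23 measured after 240 s irradiation at 23°C; τ1/2 is time to half-fade after irradiation stops. Residual ratio A96/A0 after 96 h xenon weathering.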

SMILES	Residual ratio [1]	Color developing density at 23°C [1]	Color fading half-life at 23°C [2]	Residual ratio [2]	Color developing density at 23°C [2]
CCCCCCC1(CC)c2ccccc2-c2c1c1c(c3cc(OC)c(N4CCOCC4)cc23)OC(c2ccc(OC)cc2)(c2ccc(OC)cc2)C=C1 (centres unmarked) [Formula (18-1)]	60% and 61%			53% and 55%	
CCCC1(CC)c2ccccc2-c2c1c1c(c3cc(OC)c(N4CCOCC4)cc23)OC(c2ccc(OC)cc2)(c2ccc(OC)cc2)C=C1 (centres unmarked) [Formula (14-1)]	63% and 64%		1.83 min	55% and 57%	
CCC1(C)c2ccccc2-c2c1c1c(c3cc(OC)c(N(C)c4ccccc4)cc23)OC(c2ccc(OC)cc2)(c2ccc(OC)cc2)C=C1 (centres unmarked) [Formula (9-1)]	79%	1.20 -	1.32 min	71%	1.16 -
CCCCCCCCCCCC1(C)c2ccccc2-c2c1c1c(c3cc(OC)c(N4CCOCC4)cc23)OC(c2ccc(OC)cc2)(c2ccc(OC)cc2)C=C1 (centres unmarked) [Formula (19-1)]	52% and 55%			47% and 51%	
CCCCC1(CCC)c2ccccc2-c2c1c1c(c3cc(OC)c(N4CCOCC4)cc23)OC(c2ccc(OC)cc2)(c2ccc(OC)cc2)C=C1 (centres unmarked) [Formula (6-2)]			2 min	55% and 58%	

Results, then the compound that gave them:

Residual ratio [1]	Color developing density at 23°C [1]	Color fading half-life at 23°C [2]	Residual ratio [2]	Color developing density at 23°C [2]	SMILES
40% and 42%	1.32 - and 0.69 -	0.967 min	37% and 41%	1.29 - and 0.70 -	CCC1(OC)c2ccccc2-c2c1c1c(c3cc(OC)c(N4CCOCC4)cc23)OC(c2ccc(OC)cc2)(c2ccc(OC)cc2)C=C1 (centres unmarked) [Formula (B), reference compound]
54% and 56%	1.68 - and 0.85 -		47% and 50%	1.65 - and 0.83 -	COc1ccc(C2(c3ccc(OC)cc3)C=Cc3c4c(c5cc(N6CCOCC6)c(OC)cc5c3O2)-c2ccccc2C4(C)C)cc1 [Formula (A), reference compound]
